Source: patent US20200129412A1, “SILICONE PAD HAVING ACTIVE INGREDIENTS FOR SKIN CARE AND AGAINST SKIN AGING” (Apricot GmbH, priority 2017, published 2020)

System: skin of a subject
Experiment: Drug absorption study: diffusion of stained hyaluron from silicone pad into the skin
Type: in vivo
Conditions: 6 mg powdered hyaluron stained green in adhesive layer; 2 weeks of daily use on skin
Procedure: FIG. 3A depicts a silicone pad with an adhesive layer. The adhesive layer comprises 6 mg of powdered hyaluron (<20 T Dalton). […] For manufacturing a silicone pad, the adhesive layer was bonded to a silicone body. The silicone pad was applied daily to the skin of a subject for a period of 2 weeks.

concentration of hyaluron in the silicone pad after use (decrease of color): decreases markedly | distribution of hyaluron from the pad: delivered to the skin's lower layers
Substance: hyaluron
